The record followed here is patent publication US20260001914A1, “MACROCYCLIC PEPTIDES TARGETING KRAS” (Merck Sharp & Dohme LLC, priority 2022, published 2026).

pEC50: −log10 of the molar value. *1 amine or outer side, *2 acyl side, *3 side chain or, on linkers, in order; H or OH if unused. Where a SMILES comes first, the peptide text is derived from it. Bridges are numbered along the chain shown (N, C = ends). [ ]: non-standard residue; d: D form. Phe(4-guanidino) = N=C(N)Nc1ccc(C[C@H](N)C(=O)O)cc1; X22 = CNC(=N)N(C)CCC[C@@H](C(=O)[*:2])N(C)[*:1]; Ala(pyrimidin-5-yl) = N[C@@H](Cc1cncnc1)C(=O)O; Phe(3-COOH) = N[C@@H](Cc1cccc(C(=O)O)c1)C(=O)O; X29 = CC(=O)N(C)CCC[C@@H](C(=O)[*:2])N(C)[*:1]; NMe3Pal(5-F) = CN[C@@H](Cc1cncc(F)c1)C(=O)O; NMePhe(3-Me) = CN[C@@H](Cc1cccc(C)c1)C(=O)O; X25 = O=C([C@H](Cc1ccc(F)nc1)N[*:1])[*:2]; Nle(5,5-F2) = CC(F)(F)CC[C@H](N)C(=O)O; Phe(4-Me) = Cc1ccc(C[C@H](N)C(=O)O)cc1; 1Nal = N[C@@H](Cc1cccc2ccccc12)C(=O)O; NHCH2CH2SCH2CO = O=C(CSCCN[*:1])[*:2]; Ala(cPent) = N[C@@H](CC1CCCC1)C(=O)O; Phe(2-F) = N[C@@H](Cc1ccccc1F)C(=O)O; NMe3Pal = CN[C@@H](Cc1cccnc1)C(=O)O; X1 = O=C(C12CC(CN[*:1])(C1)C2)[*:2]; X17 = O=C([C@H](CCCCF)N[*:1])[*:2]; Ala(cPr) = N[C@@H](CC1CC1)C(=O)O; NMeF = CN[C@@H](Cc1ccccc1)C(=O)O; PhLac = O=C(O)[C@@H](O)Cc1ccccc1; 3Pal = N[C@@H](Cc1cccnc1)C(=O)O; Ahp(2) = CCCCC[C@H](N)C(=O)O; Cba = N[C@@H](CC1CCC1)C(=O)O; hLeu = CC(C)CC[C@H](N)C(=O)O; αMeC = C[C@](N)(CS)C(=O)O; NMeA = CN[C@@H](C)C(=O)O; Nle = CCCC[C@H](N)C(=O)O; Nva = CCC[C@H](N)C(=O)O

phosphorylation levels of ERK1/2 in AsPC-1 (homozygous KRAS-G12D) cells, sequence (P01116 1-186 G12D): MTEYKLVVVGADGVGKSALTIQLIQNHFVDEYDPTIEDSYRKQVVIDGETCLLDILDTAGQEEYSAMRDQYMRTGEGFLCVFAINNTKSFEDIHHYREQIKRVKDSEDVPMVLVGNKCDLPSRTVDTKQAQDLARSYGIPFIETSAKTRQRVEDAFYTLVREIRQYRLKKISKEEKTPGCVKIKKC

The assay addresses phosphorylation levels of ERK1/2 in AsPC-1 (homozygous KRAS-G12D) cells (Homo sapiens, UniProt P01116, G12D). The assay can be described thus: Cellular phospho-ERK assay in AsPC-1 cells (Alpha Screen), assay medium without fetal bovine serum.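 Note: signal taken as phospho-ERK over total ERK per well, both detected in one multiplex bead assay, EC50 from four-parameter logistic fit of dose-response curves.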 The conditions noted are these: phospho-ERK AlphaScreen, 18 h. It is filed as cell-based. On the technique in general: Alpha assays give light when donor and acceptor beads are brought close together.
By pEC50 is commonly meant the negative decadic logarithm of the EC50, by convention in mol/L. Lower therefore signals a high EC50. Turning to `CCCC[C@@H]1NC(=O)[C@H](Cc2cncnc2)NC(=O)[C@H](C)N(C)C(=O)[C@H](Cc2ccccc2)OC(=O)C23CC(CNC(=O)[C@H](Cc4ccccc4)N(C)C(=O)[C@H](CCC(C)C)NC(=O)[C@H](Cc4ccccc4F)NC1=O)(C2)C3` [compound 132, cyclo(FLac-NMeA-PyrimAla-Nle-Phe2F-hL-NMeF-amBCP)] (cyclo([NMeA][Ala(pyrimidin-5-yl)][Nle][Phe(2-F)][hLeu][NMeF][X1][PhLac])), the pEC50 is 5.95.

Take `CCCCC[C@@H]1NC(=O)[C@H](Cc2ccc(OC)cc2)NC(=O)[C@H](CC2CCC2)NC(=O)[C@H](Cc2cnn(C)c2)NC(=O)[C@H](CCCNC(=N)N)NC(=O)[C@H](Cc2ccccc2)NC(=O)CSC[C@@](C)(C(N)=O)NC(=O)[C@H](Cc2ccccc2)N(C)C1=O` [compound 372, cyclo(F-R-Ala4PyzlMe-cBuA-TyrOMe-Ahp-NMeF-aMeCl-ClAc)]: the pEC50 was under 4.29.

`C[C@H]1C(=O)N[C@@H](Cc2cccnc2)C(=O)N[C@@H](CC2CCC2)C(=O)N[C@@H](Cc2ccccc2F)C(=O)N[C@@H](CCC(C)(F)F)C(=O)N(C)[C@@H](Cc2cncc(F)c2)C(=O)NCC23CC(C2)(C3)C(=O)O[C@@H](Cc2ccccc2)C(=O)N1C` [compound 285, cyclo(FLac-NMeA-3Pal-cBuA-Phe2F-Nle3F2-NMe3Pal5F-amBCP)] (cyclo([3Pal][Cba][Phe(2-F)][Nle(5,5-F2)][NMe3Pal(5-F)][X1][PhLac][NMeA])) showed a pEC50 of 5.24.

The compound `CCCCC[C@@H]1NC(=O)[C@H](Cc2ccc(OC)cc2)NC(=O)[C@H](CC2CCC2)NC(=O)[C@H](Cc2ccc(NC(=N)N)cc2)NC(=O)[C@H](CCCN(C)C(=N)NC)N(C)C(=O)[C@H](Cc2ccccc2)NC(=O)CSC[C@@](C)(C(N)=O)NC(=O)[C@H](Cc2ccccc2)N(C)C1=O` [compound 381, cyclo(F-NMeArg1MeMe-Phe4Gn-cBuA-TyrOMe-Ahp-NMeF-aMeCl-ClAc)] ({CH2CO}-F[X22][Phe(4-guanidino)][Cba]Y(Me)[Ahp(2)][NMeF][αMeC]-NH2; thioether N-8) had a pEC50 of under 4.29.

On to `CCCCC[C@@H]1NC(=O)[C@H](Cc2ccc(OC)cc2)NC(=O)[C@H](CC2CCC2)NC(=O)[C@H](Cc2ccn(C)n2)NC(=O)[C@H](CCCNC(=N)N)NC(=O)[C@H](Cc2ccccc2)NC(=O)CSC[C@@](C)(C(N)=O)NC(=O)[C@H](Cc2ccccc2)N(C)C1=O` [compound 362, cyclo(F-R-MePyzAla-cBuA-TyrOMe-Ahp-NMeF-aMeCl-ClAc)], for which the pEC50 is under 4.29.

`CCCC[C@@H]1NC(=O)[C@H](Cc2ccc(C(F)(F)F)nc2)NC(=O)[C@H](CCCn2ccnc2)N(C)C(=O)[C@H](Cc2ccccc2)OC(=O)C23CC(CNC(=O)[C@H](Cc4ccccc4)N(C)C(=O)[C@H](CCCC)NC(=O)[C@H](Cc4ccccc4F)NC1=O)(C2)C3` (single isomer, unassigned) [compound 218, cyclo(FLac-NMeNvalmid-4CF33Pal-Nle-Phe2F-Nle-NMeF-amBCP)] gave a pEC50 of under 4.29.

Regarding `CCCC[C@@H]1NC(=O)[C@H](Cc2ccccc2F)NC(=O)[C@H](CCCCF)NC(=O)[C@H](Cc2cncnc2)NC(=O)[C@H](C)N(C)C(=O)[C@H](Cc2ccccc2)OC(=O)C23CC(CNC(=O)[C@H](Cc4ccccc4)N(C)C1=O)(C2)C3` [compound 130, cyclo(FLac-NMeA-PyrimAla-NleF-Phe2F-Nle-NMeF-amBCP)] (cyclo([NMeA][Ala(pyrimidin-5-yl)][X17][Phe(2-F)][Nle][NMeF][X1][PhLac])), the pEC50 was 5.69.

For `CC(C)CC[C@@H]1NC(=O)[C@H](Cc2ccccc2F)NC(=O)[C@H](CC2CC2)NC(=O)[C@H](Cc2cccnc2)NC(=O)[C@H](C)N(C)C(=O)[C@H](Cc2ccccc2)OC(=O)C23CC(CNC(=O)[C@H](Cc4cncc(F)c4)N(C)C1=O)(C2)C3` [compound 283, cyclo(FLac-NMeA-3Pal-cPrA-Phe2F-hL-NMe3Pal5F-amBCP)] (cyclo([3Pal][Ala(cPr)][Phe(2-F)][hLeu][NMe3Pal(5-F)][X1][PhLac][NMeA])), the pEC50 was 5.90. Against the preceding compound, the pEC50 is 0.21 log units higher.

Consider `CCCC[C@@H]1NC(=O)[C@H](Cc2ccc(F)nc2)NC(=O)[C@H](C)N(C)C(=O)[C@H](Cc2ccccc2)OC(=O)C23CC(CNC(=O)[C@H](Cc4ccccc4)N(C)C(=O)[C@H](CCC)NC(=O)[C@H](Cc4ccccc4F)NC1=O)(C2)C3` [compound 234, cyclo(FLac-NMeA-4F3Pal-Nle-Phe2F-Nva-NMeF-amBCP)] (cyclo([NMeA][X25][Nle][Phe(2-F)][Nva][NMeF][X1][PhLac])), for which the negative-log EC50 (pEC50) was under 4.29.

`CCCC[C@@H]1NC(=O)[C@H](CCCCN)NC(=O)[C@H](CCCNC(=N)N)NC(=O)[C@H](Cc2cccc3ccccc23)NC(=O)CSCCNC(=O)[C@H](Cc2ccccc2)N(C)C(=O)[C@H](CCCC)NC(=O)[C@H](Cc2cccc(C(=O)O)c2)NC1=O` [compound 197, cyclo(1Nal-R-K-Nle-Phe3COOH-Nle-NMeF-Cysteamine)-ClAc] (cyclo([1Nal]RK[Nle][Phe(3-COOH)][Nle][NMeF][NHCH2CH2SCH2CO])) had a pEC50 of under 4.29.

As for `CC(C)CC[C@@H]1NC(=O)[C@H](Cc2ccccc2F)NC(=O)[C@H](CC2CCCC2)NC(=O)[C@H](Cc2cncnc2)NC(=O)[C@H](C)N(C)C(=O)[C@H](Cc2ccccc2)OC(=O)C23CC(CNC(=O)[C@H](Cc4ccccc4)N(C)C1=O)(C2)C3` [compound 135, cyclo(FLac-NMcA-PyrimAla-cPeA-Phe2F-hL-NMeF-amBCP)] (cyclo([Ala(cPent)][Phe(2-F)][hLeu][NMeF][X1][PhLac][NMeA][Ala(pyrimidin-5-yl)])), the negative-log EC50 (pEC50) was 6.55.

As for `CCCC[C@@H]1NC(=O)[C@H](Cc2ccccc2F)NC(=O)C(CC2CC(F)(F)C2)NC(=O)[C@H](Cc2cncnc2)NC(=O)[C@H](C)N(C)C(=O)[C@H](Cc2ccccc2)OC(=O)C23CC(CNC(=O)[C@H](Cc4cccnc4)N(C)C1=O)(C2)C3` (single isomer, unassigned) [compound 123, cyclo(FLac-NMeA-PyrimAla-rF2Cba-Phe2F-Nle-NMe3Pal-amBCP)], the pEC50 was under 4.29.

In turn, `CCCC[C@@H]1NC(=O)[C@H](Cc2cccnc2)NC(=O)[C@H](C)N(C)C(=O)[C@H](Cc2ccc(C)cc2)NC(=O)C23CC(CNC(=O)[C@H](Cc4cccnc4)N(C)C(=O)[C@H](CCCC)NC(=O)[C@H](Cc4ccccc4F)NC1=O)(C2)C3` [compound 170, cyclo(Phe4Me-NMeA-3Pal-Nle-Phe2F-Nle-NMe3Pal-amBCP)] (cyclo([3Pal][Nle][Phe(2-F)][Nle][NMe3Pal][X1][Phe(4-Me)][NMeA])) had a pEC50 of 4.43.

Compound `CCCC[C@@H]1NC(=O)[C@H](Cc2cccnc2)NC(=O)[C@H](CCCN(C)C(C)=O)N(C)C(=O)[C@H](Cc2ccccc2)OC(=O)C23CC(CNC(=O)[C@H](Cc4cccnc4)N(C)C(=O)[C@H](CCCC)NC(=O)[C@H](Cc4ccccc4F)NC1=O)(C2)C3` [compound 405, cyclo(FLac-NMeOrnAc-3Pal-Nle-Phe2F-Nle-NMe3Pal-amBCP)] (cyclo([3Pal][Nle][Phe(2-F)][Nle][NMe3Pal][X1][PhLac][X29])) showed a pEC50 of under 4.29.

On to `CCCC[C@@H]1NC(=O)[C@H](Cc2cncnc2)NC(=O)[C@H](C)N(C)C(=O)[C@H](Cc2ccccc2)OC(=O)C23CC(CNC(=O)[C@H](Cc4cccc(C)c4)N(C)C(=O)[C@H](CCCC)NC(=O)[C@H](Cc4ccccc4F)NC1=O)(C2)C3` [compound 172, cyclo(FLac-NMeA-PyrimAla-Nle-Phe2F-Nle-NMePhe3Me-amBCP)] (cyclo([NMeA][Ala(pyrimidin-5-yl)][Nle][Phe(2-F)][Nle][NMePhe(3-Me)][X1][PhLac])), for which the pEC50 is 6.59.
